#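 Compound exposure: 48 hours, 5 concentrations, 96-well plates. GI50 = concentration required for 50% inhibition of growth.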 The source made the active and inactive calls. No stated cut-off is given here; in the data, active = GI50 up to about 1.1 µM and inactive = higher.
# Tests used:
# Experiment in all cases: NCI-60 cell line screen, 48 h
# 786-0 = system: 786-0
# A498 = system: A498
# A549 = system: A549
# ACHN = system: ACHN
# BT-549 = system: BT-549
# CAKI-1 = system: CAKI-1
# CCRF-CEM = system: CCRF-CEM
# COLO 205 = system: COLO 205
# DU-145 = system: DU-145
# EKVX = system: EKVX
# HCC 2998 = system: HCC 2998
# HCT-116 = system: HCT-116
# HCT-15 = system: HCT-15
# HOP-62 = system: HOP-62
# HT-29 = system: HT-29
# IGROV-1 = system: IGROV-1
# K562 = system: K562
# KM12 = system: KM12
# LOX IMVI = system: LOX IMVI
# M14 = system: M14
# MCF7 = system: MCF7
# MDA-MB-231 = system: MDA-MB-231
# MDA-MB-435 = system: MDA-MB-435
# MDA-N = system: MDA-N
# MOLT-4 = system: MOLT-4
# Malme-3M = system: Malme-3M
# NCI-H226 = system: NCI-H226
# NCI-H23 = system: NCI-H23
# NCI-H460 = system: NCI-H460
# NCI-H522 = system: NCI-H522
# NCI/ADR-RES = system: NCI/ADR-RES
# OVCAR-4 = system: OVCAR-4
# OVCAR-5 = system: OVCAR-5
# OVCAR-8 = system: OVCAR-8
# PC-3 = system: PC-3
# RPMI-8226 = system: RPMI-8226
# RXF 393 = system: RXF 393
# SF-268 = system: SF-268
# SF-295 = system: SF-295
# SF-539 = system: SF-539
# SK-MEL-28 = system: SK-MEL-28
# SK-MEL-2 = system: SK-MEL-2
# SK-MEL-5 = system: SK-MEL-5
# SK-OV-3 = system: SK-OV-3
# SN12C = system: SN12C
# SNB-19 = system: SNB-19
# SNB-75 = system: SNB-75
# SW-620 = system: SW-620
# T47D = system: T47D
# TK-10 = system: TK-10
# U-251 = system: U-251
# UACC-257 = system: UACC-257
# UACC-62 = system: UACC-62
# UO-31 = system: UO-31
# HOP-92 = system: HOP-92
# OVCAR-3 = system: OVCAR-3
# HL-60 = system: HL-60
# SR = system: SR
structure (smiles),measurement,setting,value
C=CC[C@]1(/C=N/O)CN(S(=O)(=O)CC[Si](C)(C)C)C[C@H]2CC=CC[C@H]21,GI50,786-0,18.5 µM (inactive)
same,GI50,A498,17.7 µM (inactive)
same,GI50,A549,16 µM (inactive)
same,GI50,ACHN,> 10 µM (inactive)
same,GI50,BT-549,28.5 µM (inactive)
same,GI50,CAKI-1,17.1 µM (inactive)
same,GI50,CCRF-CEM,14 µM (inactive)
same,GI50,COLO 205,17.3 µM (inactive)
same,GI50,DU-145,20.6 µM (inactive)
same,GI50,EKVX,25.7 µM (inactive)
same,GI50,HCC 2998,16.7 µM (inactive)
same,GI50,HCT-116,14.2 µM (inactive)
same,GI50,HCT-15,38.4 µM
same,GI50,HOP-62,20 µM (inactive)
same,GI50,HT-29,16.2 µM (inactive)
same,GI50,IGROV-1,15.4 µM (inactive)
same,GI50,K562,18.4 µM (inactive)
same,GI50,KM12,24.6 µM (inactive)
same,GI50,LOX IMVI,19.7 µM (inactive)
same,GI50,M14,20.2 µM (inactive)
same,GI50,MCF7,17.3 µM (inactive)
same,GI50,MDA-MB-231,24.4 µM (inactive)
same,GI50,MDA-MB-435,29.4 µM (inactive)
same,GI50,MDA-N,20.3 µM (inactive)
same,GI50,MOLT-4,16.4 µM (inactive)
same,GI50,Malme-3M,20.5 µM (inactive)
same,GI50,NCI-H226,19.5 µM (inactive)
same,GI50,NCI-H23,27.7 µM (inactive)
same,GI50,NCI-H460,18.4 µM (inactive)
same,GI50,NCI-H522,15.8 µM (inactive)
same,GI50,NCI/ADR-RES,39.8 µM (inactive)
same,GI50,OVCAR-4,14.8 µM (inactive)
same,GI50,OVCAR-5,21.7 µM (inactive)
same,GI50,OVCAR-8,24 µM (inactive)
same,GI50,PC-3,17.6 µM (inactive)
same,GI50,RPMI-8226,13.4 µM (inactive)
same,GI50,RXF 393,13.6 µM (inactive)
same,GI50,SF-268,32.9 µM (inactive)
same,GI50,SF-295,15.6 µM (inactive)
same,GI50,SF-539,18.2 µM (inactive)
same,GI50,SK-MEL-28,22.6 µM (inactive)
same,GI50,SK-MEL-2,15 µM (inactive)
same,GI50,SK-MEL-5,29.4 µM (inactive)
same,GI50,SK-OV-3,24.2 µM (inactive)
same,GI50,SN12C,16.2 µM (inactive)
same,GI50,SNB-19,21.8 µM (inactive)
same,GI50,SNB-75,21 µM (inactive)
same,GI50,SW-620,18.1 µM (inactive)
same,GI50,T47D,26.4 µM (inactive)
same,GI50,TK-10,19.5 µM (inactive)
same,GI50,U-251,17.7 µM (inactive)
same,GI50,UACC-257,21.2 µM (inactive)
same,GI50,UACC-62,16.6 µM (inactive)
same,GI50,UO-31,26.3 µM (inactive)
CC(C)[Si](OC1=C(C(=O)N(C)c2ccccc2Cl)CCCCC1)(C(C)C)C(C)C,GI50,786-0,> 100 µM (inactive)
same,GI50,A498,> 100 µM (inactive)
same,GI50,A549,> 100 µM (inactive)
same,GI50,ACHN,> 100 µM (inactive)
same,GI50,BT-549,> 100 µM (inactive)
same,GI50,CAKI-1,> 100 µM (inactive)
same,GI50,COLO 205,> 100 µM (inactive)
same,GI50,DU-145,> 100 µM (inactive)
same,GI50,EKVX,> 100 µM (inactive)
same,GI50,HCT-116,> 100 µM (inactive)
same,GI50,HCT-15,> 100 µM
same,GI50,HOP-62,> 100 µM (inactive)
same,GI50,HOP-92,> 100 µM (inactive)
same,GI50,HT-29,> 100 µM (inactive)
same,GI50,IGROV-1,> 100 µM (inactive)
same,GI50,KM12,> 100 µM (inactive)
same,GI50,LOX IMVI,> 100 µM (inactive)
same,GI50,M14,> 100 µM (inactive)
same,GI50,MDA-MB-231,> 100 µM (inactive)
same,GI50,MDA-MB-435,> 100 µM (inactive)
same,GI50,MDA-N,> 100 µM (inactive)
same,GI50,MOLT-4,> 100 µM (inactive)
same,GI50,Malme-3M,> 100 µM (inactive)
same,GI50,NCI-H226,> 100 µM (inactive)
same,GI50,NCI-H23,> 100 µM (inactive)
same,GI50,NCI-H460,> 100 µM (inactive)
same,GI50,NCI-H522,97.1 µM (inactive)
same,GI50,NCI/ADR-RES,> 100 µM (inactive)
same,GI50,OVCAR-3,> 100 µM (inactive)
same,GI50,OVCAR-4,> 100 µM (inactive)
same,GI50,OVCAR-5,> 100 µM (inactive)
same,GI50,OVCAR-8,> 100 µM (inactive)
same,GI50,RPMI-8226,> 100 µM (inactive)
same,GI50,RXF 393,> 100 µM (inactive)
same,GI50,SF-268,> 100 µM (inactive)
same,GI50,SF-295,> 100 µM (inactive)
same,GI50,SF-539,> 100 µM (inactive)
same,GI50,SK-MEL-28,> 100 µM (inactive)
same,GI50,SK-MEL-5,> 100 µM (inactive)
same,GI50,SK-OV-3,> 100 µM (inactive)
same,GI50,SN12C,> 100 µM (inactive)
same,GI50,SNB-19,> 100 µM (inactive)
same,GI50,SNB-75,> 100 µM (inactive)
same,GI50,SW-620,> 100 µM (inactive)
same,GI50,T47D,> 100 µM (inactive)
same,GI50,TK-10,> 100 µM (inactive)
same,GI50,U-251,> 100 µM (inactive)
same,GI50,UACC-257,> 100 µM (inactive)
same,GI50,UO-31,> 100 µM (inactive)
O=C(O)C(O)(c1ccc(-c2ccccc2)cc1)c1ccc(-c2ccccc2)cc1,GI50,786-0,24.5 µM (inactive)
same,GI50,A498,23.3 µM (inactive)
same,GI50,A549,40.4 µM (inactive)
same,GI50,ACHN,32.1 µM (inactive)
same,GI50,BT-549,20.5 µM (inactive)
same,GI50,CAKI-1,28.8 µM (inactive)
same,GI50,DU-145,16.6 µM (inactive)
same,GI50,EKVX,24.3 µM (inactive)
same,GI50,HCT-116,23.5 µM (inactive)
same,GI50,HCT-15,19.2 µM
same,GI50,HL-60,21.5 µM (inactive)
same,GI50,HOP-62,20.1 µM (inactive)
same,GI50,HOP-92,19.1 µM (inactive)
same,GI50,HT-29,30.2 µM (inactive)
same,GI50,IGROV-1,23.4 µM (inactive)
same,GI50,K562,80.9 µM (inactive)
same,GI50,KM12,19.9 µM (inactive)
same,GI50,LOX IMVI,17.9 µM (inactive)
same,GI50,M14,35 µM (inactive)
same,GI50,MDA-MB-231,28.3 µM (inactive)
same,GI50,MDA-MB-435,19.5 µM (inactive)
same,GI50,MDA-N,17.1 µM (inactive)
same,GI50,MOLT-4,42.2 µM (inactive)
same,GI50,Malme-3M,23.1 µM (inactive)
same,GI50,NCI-H226,26.9 µM (inactive)
same,GI50,NCI-H23,18.9 µM (inactive)
same,GI50,NCI-H460,20.4 µM (inactive)
same,GI50,NCI-H522,18.9 µM (inactive)
same,GI50,NCI/ADR-RES,24.5 µM (inactive)
same,GI50,OVCAR-3,15 µM (inactive)
same,GI50,OVCAR-4,36 µM (inactive)
same,GI50,OVCAR-5,26.7 µM (inactive)
same,GI50,OVCAR-8,32.5 µM (inactive)
same,GI50,PC-3,27 µM (inactive)
same,GI50,RPMI-8226,56.6 µM (inactive)
same,GI50,RXF 393,22 µM (inactive)
same,GI50,SF-268,24.3 µM (inactive)
same,GI50,SF-295,34 µM (inactive)
same,GI50,SK-MEL-28,35.3 µM (inactive)
same,GI50,SK-MEL-2,14.1 µM (inactive)
same,GI50,SK-MEL-5,18.9 µM (inactive)
same,GI50,SN12C,22 µM (inactive)
same,GI50,SNB-19,49.4 µM (inactive)
same,GI50,SNB-75,17.1 µM (inactive)
same,GI50,SR,47.5 µM (inactive)
same,GI50,SW-620,32.4 µM (inactive)
same,GI50,T47D,41.6 µM (inactive)
same,GI50,TK-10,37.6 µM (inactive)
same,GI50,U-251,17.1 µM (inactive)
same,GI50,UACC-257,36.1 µM (inactive)
same,GI50,UACC-62,18.1 µM (inactive)
same,GI50,UO-31,42 µM (inactive)

# From ChEMBL document CHEMBL1201862, “PubChem BioAssay data set” (2004)
